Assay: gradient 5% acetonitrile 3 min, to 50% in 2 min, to 85% in 15 min, held 3 min, 100 µL/min
Conditions: column: Zorbax Extend-C18 2.1 x 50 mm; eluents: water / acetonitrile, 0.1% formic acid
Procedure, shortened: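 Standards, all pure, were combined into mixtures of ~100 molecules and run at 100 μL/min on a Zorbax Extend-C18 column (2.1 × 50 mm, 1.8 μm) with water and acetonitrile, each containing 0.1% formic acid. A coupled quadrupole time-of-flight mass spectrometer operated in positive and negative ionization mode. Retention time values come from computationally picked adduct peaks, each inspected manually.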

SMILES | RP-LC retention time [s]
CSc1ccccc1NC(=O)C(=O)NCC1CCN(C(=O)COc2ccccc2)CC1 | 754
O=C(CCCN1C(=O)c2cccc3cccc(c23)C1=O)Nc1cccnc1 | 571
O=C(Cn1c(C(F)(F)F)nc2cc3c(cc21)OCCO3)N1CCOCC1 | 682
O=C(CC(F)(F)F)N1CCCC(CCc2nnc(-c3cnccn3)o2)C1 (stereo not given) | 717
CCOc1ccc(NC(=O)c2cccc(N3CCNC(c4ccccc4)C3)n2)cc1 (stereo not given) | 700
COCCNC(=O)c1nn(-c2ccc(Cl)cc2)c2c(=O)n(C)cnc12 | 709
COc1ccc(NC(=O)N2CCC(c3nc4cccnc4n3C)C2)cc1 (stereo not given) | 617
Cc1ccc(SCC(=O)N2CCN(c3ccccc3)CC2)cc1 | 942
Cc1ccc(C)c(NC(=O)CSc2nncn2C)c1 | 618
O=S(=O)(NCc1ccco1)c1cc(-c2nnc(-c3ccccc3)o2)ccc1F | 902
Cc1ccc(C)c(CNC(=O)c2ccc3c(c2)nc2n3CCN(C(C)C)C2=O)c1 | 769
Cc1nc2cccnc2n1C1CCN(C(=O)Nc2ccc(Cl)cc2)CC1 | 659
Cc1cccc(-n2c(=O)c3sccc3n(Cc3nc(-c4cccc(Br)c4)no3)c2=O)c1 | 1130
CNC(=O)[C@@H]1CN(C(=O)c2cncc(Br)c2)C[C@H]1COC | 576
COc1ccc(C2CN(S(=O)(=O)c3ccc(C#N)cc3)CCN2C)cc1 (stereo not given) | 564
CCOc1ccccc1C(=O)NCC(c1ccc(N(C)C)cc1)N(C)C (stereo not given) | 572
CC1CN(C(=O)NCC2CCCO2)c2ccccc2O1 (stereo not given) | 754
CCOC(=O)NCC1CCN(Cc2ccccc2SC)CC1 | 566
O=C(NC1CCN(c2cc(-c3cccs3)[nH]n2)C1)c1cccnc1 (stereo not given) | 618
CCOc1ccc(-c2noc(Cc3nnc(-c4cc(F)cc(F)c4)o3)n2)cc1 | 1100
Cc1cccc(-n2c(=O)c3c(cc(C)n3C)n(CC(=O)Nc3cc(C)ccc3C)c2=O)c1 | 844
Cc1ccc(NC(=O)Cn2cnc(C)c(C)c2=O)c(F)c1 | 667
O=c1ccc(-c2ccc3c(c2)OCO3)nn1CCc1nc(-c2ccc(Cl)cc2)no1 | 1040

SMILES | RP-LC retention time [s]
CCCCNC(=O)Cn1c(C(=O)OC)cc2oc3ccccc3c21 | 959
O=c1c2sccc2n(Cc2nc(-c3ccccc3)no2)c(=O)n1Cc1ccc(F)cc1 | 1040
Cc1c(C(=O)N2CCSCC2)cnn1-c1cc(-c2nc(C(C)(C)C)no2)ccn1 | 1070
O=C(NCCCn1ncccc1=O)c1ccccc1C(F)(F)F | 635
O=c1n(Cc2cc(F)cc(F)c2)nc2c(-c3nc(-c4cccc(F)c4)no3)cccn12 | 1050
CCCOc1ccc(C2NC(=O)NC(C)=C2C(=O)OCC(F)(F)F)cc1OC (stereo not given) | 808
Cc1nc([C@@H]2CN(C(=O)c3sccc3C)C[C@H]2C(N)=O)n[nH]1 | 552
CCN1CCN(C(=O)C2CCc3sc(C(=O)N4CCCC4)cc3C2)CC1 (stereo not given) | 580
COC(=O)c1cnc2nc(C)ccc2c1Nc1ccc(OC)c(Cl)c1 | 682
CCOc1cc(-c2ccc(F)cc2)nc2ccc(NC(=O)C3CC3)cc12 | 721
Cc1ccc(C(=O)NC2CCN(c3nnc4ccc(C(F)(F)F)cn34)CC2)cc1 | 802
O=C(c1sc2cc(F)ccc2c1Cl)N1CCN(c2ccccn2)CC1 | 693
COc1ccc(-c2nc3cc(C)ccn3c2NC(=O)c2ccc(Cl)c([N+](=O)[O-])c2)cc1 | 736
CC1CCN(S(=O)(=O)c2ccc3c(c2)CCCC(=O)N3CC(=O)N(C)C2CCCCC2)CC1 | 1040
CC(C)(C)NC(=O)N1CCC(CNC(=O)C(=O)Nc2cccc(N3CCCC3=O)c2)CC1 | 683
Cc1cc(C(=O)O)c2c(C)nn(-c3cccc(F)c3)c2n1 | 954
Cc1cn(-c2cc(NC(=O)c3ccc(C)c(Nc4nccc(-c5cccnc5)n4)c3)cc(C(F)(F)F)c2)cn1 | 776
O=C(c1ccccc1OCc1nc(-c2ccccc2)no1)N1CCCCC1 | 950
Cc1nc(-c2cc3ccccc3nc2N2CCN(Cc3ccccc3)CC2)no1 | 715
Cc1cc(C)c2c(N3CCCCC3)nc(C(=O)N3CCN(C(C)C)CC3)nc2n1 | 556
CCOc1ccc(CNC(=O)c2cc(NC(C)=O)cc3nc(C)ccc23)cc1 | 620
Cc1ccc2c(Nc3cc(F)cc(F)c3)c(C(=O)N3CCOCC3)cnc2n1 | 593

From the METLIN SMRT retention time set (Domingo-Almenara et al. 2019)
